The text below walks through data of patent publication US6610694B1, “Condensed pyridazine compounds, their production and use” (Takeda Chemical Industries, Ltd., priority 1998, dated 2003).

In one data set the test system is guinea pig eosinophils. Briefly: Suppression of LTB4-induced chemotactic reaction in guinea pig eosinophils. The format is cell-based. The procedure:
1) Preparation of Guinea Pig Eosinophils
To male Hartley guinea pigs, 2 ml of equine serum (Bio-Whittaker, Inc.) was intraperitoneally administered once weekly for 8 consecutive weeks. At 48 hours after final administration, 75 ml of physiological saline was intraperitoneally injected, after which the saline was recovered and centrifuged at 400×g for 5 minutes. The resulting sediment was suspended in 5 ml of Percoll solution (density (d)=1.07) and layered on top of the multiple layers of different densities of Percoll solution (density(d)=1.112, 5 ml; d=1.095, 10 ml; d=1.090, 10 ml; d=1.085, 5 ml), followed by centrifugation at 1,000×g for 25 minutes (20° C.). The cell layer formed at the interface between densities 1.112 and 1.095 was collected. Erythrocytes present in the collected cell sediment were removed by hypotonic treatment (suspended in water for […]).
The cell sediment was washed 3 times with Hanks' solution containing 10 mM Hepes (Dojin Kagaku) (Hanks-Hepes) and suspended in a Hanks-Hepes solution containing 2% human serum albumin (Wako Pure Chemical Industry or Sigma) (Hanks-Hepes-HSA) to a final concentration of 5.56×10^6 cells/ml. Eosinophil purity was 90%, viability being over 98%.
2) Determination of Chemotactic Reaction Suppression
To a 24-well petri dish, which serves as a lower chamber, 600 μl of Hanks-Hepes-HSA solution containing LTB4 (final concentration 10^−8 M, Cascade Biochemical Ltd.), was transferred, followed by incubation at 37° C. for 30 minutes in a carbon dioxide incubator. Separately, 200 μl of eosinophil suspension (5×10^6 cells/ml), previously incubated at 37 C for 15 minutes, was added to Chemotaxicell (polycarbonate membrane, pore size 3 μm, thickness 10 μm), which serves as an upper chamber, after the upper chamber was attached to the 24-well petri dish. After 2 hours of reaction in the CO2 incubator, the Chemotaxicell was removed; 60 μl of a 2% (w/v) solution of EDTA in physiological saline was added to the liquid in the lower chamber. After the mixture was on cooled ice, the cells migrating into the lower chamber were counted using a blood cell counter [Coulter Counter (trade name)]. The test drug, dissolved in N,N-dimethyl formamide (DMF), was added to both the upper and lower chambers to a final concentration of 10^-5 M.
Chemotactic reaction suppression rate=[1−(number of migrating cells in the presence of drug/number of migrating cells in the absence of drug).]×100 Equation 2
Suppression rates of LTB4-induced chemotactic reaction by test substances (1×10^−5 M) were calculated using the above equation.
In the same manner as Experimental Example 2a, the percent suppression of LTB4-induced chemotactic reactions by various example compounds was calculated.

Data set [1] deals with histamine-induced skin reactions in guinea pigs. Briefly: Effect on histamine-induced skin reactions in guinea pigs (skin vascular permeability). The format is in vivo, guinea pig. The conditions noted are these: oral 3 mg/kg. The method, then:
Effect on Histamine-induced Skin Reactions in Guinea Pigs
Male Hartley guinea pigs weighing about 500 g were used. After the dorsal hair was shaved under ether anesthesia, 1 ml of a 2.5% pontamine sky blue solution was injected intravenously administered, and then 0.1 ml of histamine at 3 μg/ml was injected intradermally into 2 sites (left and right) in the back. Thirty minutes after the injection of histamine, the animals were killed by bleeding and the skin was removed. Two perpendicular diameters (mm) of each blue spot on the inside of the skin were measured and multiplied; the mean for the two products was taken as the microvascular permeability index. Test compounds were suspended in a 5% gum arabic solution and orally administered in a volume of 0.2 ml/100 g body weight 1 hour before histamine administration. Animals in the control group received the same volume of a 5% gum arabic solution. The suppression rate of the sample for the title reaction was calculated using Equation 1, and the results are given in Table 1.
Inhibition (%) of histamine-induced skin reactions=100×(1−vascular permeability index in the presence of drug/vascular permeability index in control group) Equation 1
In the same manner as Experimental Example 1a, the effects of various example compounds on histamine-induced skin reactions in guinea pigs were examined.

The mark [2] stands for this setting: LTB4 10^−8 M-induced chemotaxis, test substance 1×10^−5 M, Table 2.
Where [3] appears, read: 1 hour before intradermal histamine, Table 1.
Setting [4] is: LTB4-induced chemotaxis, same manner as Experimental Example 2a (1×10^−5 M), Table 4.
Setting [5] is: same manner as Experimental Example 1a, Table 3.

Structures can show the parent of a compound that is named as a salt.

For the compound `c1ccc(C(OC2CCN(CCCCCCOc3ccc4nncn4n3)CC2)c2ccccc2)cc1` [Example 7a, 6-[6-[4-(Diphenylmethoxy)piperidino]hexyloxy][1,2,4]triazolo[4,3-b]pyridazine Fumarate], the “Suppression rate (%)” value in the data set with guinea pig eosinophils (setting [2]) was determined as 36%. For the same compound, the “Suppression (%) of histamine-induced skin vascular permeability elevation, oral administration at 3 mg/kg” value (shortened to “Suppression (%)”) in data set [1] (setting [3]) is 89%.

In general, melting point refers to the temperature of the solid-liquid transition. Turning to `CCOC(=O)Cn1nc2ccc(NCCCN3CCC(OC(c4ccccc4)c4ccccc4)CC3)nn2c1=O` [Example 7b, ethyl 2-[6-[3-[4-(Diphenylmethoxy)piperidino]propylamino]-3-oxo[1,2,4]triazolo[4,3-b]pyridazin-2(3H)-yl]acetate], the melting point fell in the range of 137 to 139 °C. The “Suppression rate (%)” value in the data set on guinea pig eosinophils (setting [4]) stood at 26%. In addition, the “Suppression (%)” value in data set [1] (setting [5]) was found to be 89%.

`CCOC(=O)C(C)(C)n1nc2ccc(NCCCN3CCC(OC(c4ccccc4)c4ccccc4)CC3)nn2c1=O.Cl` [Example 8b, Ethyl 2-[6-[3-[4-(Diphenylmethoxy)piperidino]propylamino]-3-oxo[1,2,4]triazolo[4,3-b]pyridazin-2(3H)-yl]-2-methylpropionate Hydrochloride] came in with a melting point of 162 °C. The “Suppression rate (%)” value in the data set with guinea pig eosinophils (setting [4]) stood at 57%. In data set [1] (setting [5]), the “Suppression (%)” value is recorded as 74%.

`c1ccc(C(OC2CCN(CCCCCCNc3ccc4nncn4n3)CC2)c2ccccc2)cc1` [Example 10a, 6-[6-[4-(Diphenylmethoxy)piperidino]hexylamino][1,2,4]triazolo[4,3-b]pyridazine]: the melting point lay in the range of 124 to 127 °C. In addition, in the data set with guinea pig eosinophils (setting [2]), the “Suppression rate (%)” value came to 60%. The “Suppression (%)” value in data set [1] (setting [3]) is 91%.

In the case of `CC(C)(C)c1nnc2ccc(OCCCN3CCC(OC(c4ccccc4)c4ccccc4)CC3)nn12` [Example 13a, 3-tert-Butyl-6-[3-[4-(diphenylmethoxy)piperidino]propoxy][1,2,4]triazolo[4.3-b]pyridazine], the “Suppression rate (%)” value in the data set with guinea pig eosinophils (setting [2]) was 41%. Further, the “Suppression (%)” value in data set [1] (setting [3]) was found to be 79%.

In turn, `O=C(O)c1nnc2ccc(NCCCN3CCC(OC(c4ccccc4)c4ccccc4)CC3)nn12` [Example 22a, 6-[3-[4-(Diphenylmethoxy)piperidino]propylamino][1,2,4]triazolo[4,3-b]pyridazine-3-carboxylic Acid] displayed a melting point of 102 to 104 °C. Further, the “Suppression rate (%)” value with guinea pig eosinophils (setting [2]) worked out at 50%. Moreover, in data set [1] (setting [3]), the “Suppression (%)” value is given as 86%.
